Assay results taken from patent US11530244B2, “Cyclic polypeptides for PCSK9 inhibition” (priority 2018, dated 2022).
Starred links: 1 amine or outer side, 2 acyl side, 3 side chain; linkers in the order of their positions; H or OH if unused. Positions of bridges follow the written chain, without caps; N, C: chain ends. Non-standard residues stand in square brackets, D forms with d. Residues, ends and D or L forms follow the SMILES beside them. NHCH2C6H4(p)CH2CH2NH = c1cc(CN[*:1])ccc1CCN[*:2]; X58 = O=C([C@@H]1[C@H](OCC=[*:3])CCN1[*:1])[*:2]; Ala(imidazol-2-yl) = N[C@@H](Cc1ncc[nH]1)C(=O)O; Trp(5-OH) = N[C@@H](Cc1c[nH]c2ccc(O)cc12)C(=O)O; Phe(4-COOH) = N[C@@H](Cc1ccc(C(=O)O)cc1)C(=O)O; Trp(5-F) = N[C@@H](Cc1c[nH]c2ccc(F)cc12)C(=O)O; Phe(4-CH2NH2) = NCc1ccc(C[C@H](N)C(=O)O)cc1; X3 = O=C(CCSCc1cc(F)cc(CSCCN[*:1])c1)[*:2]; Heptanedioyl = O=C(CCCCCC(=O)[*:2])[*:1]; Pro(cis-4-F) = O=C(O)[C@@H]1C[C@H](F)CN1; X12 = O=C([C@H](CCCCC=[*:3])N[*:1])[*:2]; X4 = O=C(CCSCc1cccc(CSCCN[*:1])c1)[*:2]; Orn(N3) = [N-]=[N+]=NCCC[C@H](N)C(=O)O; X40 = FC(F)(F)c1cc(C[*:1])cc(C[*:2])c1; mXylylene = c1cc(C[*:1])cc(C[*:2])c1; AEF = NCCOc1ccc(C[C@H](N)C(=O)O)cc1; X53 = C#CCCC[C@H](N[*:1])C(=O)[*:2]; Adipoyl = O=C(CCCCC(=O)[*:2])[*:1]; cisHyp = O=C(O)[C@@H]1C[C@H](O)CN1; aThr = C[C@H](O)[C@H](N)C(=O)O; Suc = O=C(CCC(=O)[*:2])[*:1]; αMeP = C[C@@]1(C(=O)O)CCCN1; Dap = NC[C@H](N)C(=O)O; AEEA = NCCOCCOCC(=O)O; Ava = NCCCCC(=O)O; Mpa = O=C(O)CCS

Molecular target: PCSK9 (Homo sapiens (Human), UniProt Q8NBP7)
Sequence (Q8NBP7 153-692): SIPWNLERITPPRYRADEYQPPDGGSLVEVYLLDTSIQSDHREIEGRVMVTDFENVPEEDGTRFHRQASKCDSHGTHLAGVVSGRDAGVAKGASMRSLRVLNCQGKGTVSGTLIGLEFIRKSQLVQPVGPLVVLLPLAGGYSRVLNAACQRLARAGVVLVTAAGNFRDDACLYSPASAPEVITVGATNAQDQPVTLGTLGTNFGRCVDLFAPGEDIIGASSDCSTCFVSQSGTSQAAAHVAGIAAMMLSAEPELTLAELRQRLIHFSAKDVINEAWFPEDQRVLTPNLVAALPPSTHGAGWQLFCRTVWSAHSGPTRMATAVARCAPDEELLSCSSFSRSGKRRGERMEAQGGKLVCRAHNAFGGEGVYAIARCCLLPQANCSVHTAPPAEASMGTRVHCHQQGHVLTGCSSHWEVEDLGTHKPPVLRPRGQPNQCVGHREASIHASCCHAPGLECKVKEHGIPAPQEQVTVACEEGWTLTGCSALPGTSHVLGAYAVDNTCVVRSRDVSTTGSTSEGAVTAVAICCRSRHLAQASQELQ
Assay: PCSK9 Alexa FRET Standard assay (displacement of AlexaFluor647 tagged cyclic peptide Reagent A)
Format: binding
Settings: PCSK9 Alexa FRET Standard assay, 0.5 nM PCSK9, 20 nM AF cyclic peptide Reagent A; read-out: IC50
Experimental: A solution containing 1 nM biotinylated PCSK9+2.5 nM Lance Streptavidin Europium (Strep-Eu) was made in 50 mM HEPES pH 7.4, 0.15 M NaCl, 5 mM CaCl2), 0.01% BSA, and 0.01% Surfactant P20. A separate solution containing 40 nM of the AlexaFluor tagged cyclic peptide was made in the same buffer system. An Echo was used to transfer 0.750 ul of compound to an assay plate followed by the addition of 15 ul of PCSK9+Stept-Eu and 15 ul of AF peptide. The final assay volume was 30.750 ul containing 0.5 nM PCSK9, 1.25 nM Strep-Eu, and 20 nM AF cyclic peptide. The reaction was incubated at room temperature for at least two hours prior to fluorescence measurements using an Envision Multilabel Reader. IC50 values were determined by fitting data to a sigmoidal dose-response curve using nonlinear regression. Ki was then calculated from the IC50 and the KD of AF cyclic peptide. Counts (B-counts) of the europium-labeled PCSK9 were followed to observe if compounds were […]. A fall off of the B-counts likely indicated a false positive of inhibition. Data from this procedure was reported as “A=‘numerical value’ (nanomolar)”

| SMILES | IC50 [µM] |
| --- | --- |
| CC(=O)N[C@H]1CCCC/C=C/CO[C@@H]2CCN(C(=O)[C@H](Cc3ccc(O)cc3)NC(=O)[C@H](Cc3cnc[nH]3)NC(=O)[C@H](CC(=O)O)NC(=O)[C@H](Cc3c[nH]c4ccc(F)cc34)NC(=O)[C@H](Cc3c[nH]c4ccc(F)cc34)NC(=O)CNC(=O)[C@H](CCCCN)NC1=O)[C@@H]2C(N)=O [Compound 469] (Ac-[X12]KG[Trp(5-F)][Trp(5-F)]DHY[X58]-NH2; staple (E) 1-9) | 21 to 50 |
| CC(=O)N[C@H]1CCCc2cn(nn2)-c2ccc(cc2)C[C@@H](C(N)=O)NC(=O)[C@]2(C)CCCN2C(=O)[C@H](Cc2ccc(O)cc2)NC(=O)[C@H](Cc2cnc[nH]2)NC(=O)[C@H](CC(=O)O)NC(=O)[C@H](Cc2c[nH]c3ccc(F)cc23)NC(=O)[C@H](Cc2c[nH]c3ccc(F)cc23)NC(=O)CNC(=O)[C@H](C)NC1=O [Compound 337] | 21 to 50 |
| C[C@@]12CCCN1C(=O)[C@H](Cc1ccc(O)cc1)NC(=O)[C@H](Cc1cnc[nH]1)NC(=O)[C@H](CC(=O)O)NC(=O)[C@H](Cc1c[nH]c3ccc(O)cc13)NC(=O)[C@H](Cc1c[nH]c3ccc(O)cc13)NC(=O)CNC(=O)[C@H](CCCCN)NC(=O)CCSCc1cccc(c1)CSC[C@@H](C(N)=O)NC2=O [Compound 415] ([Mpa]KG[Trp(5-OH)][Trp(5-OH)]DHY[αMeP]C-NH2; linker 1-10 via mXylylene) | 0.00011 to 0.1 |
| COc1ccc(C[C@@H]2NC(=O)[C@H]([C@@H](C)O)NC(=O)[C@@H]3CCCN3C(=O)[C@H](Cc3c[nH]c4ccc(F)cc34)NC(=O)[C@H](Cc3c[nH]c4ccc(F)cc34)NC(=O)[C@@H](C)NC(=O)[C@H](CCCCN)NC(=O)CCSCc3cc(cc(C(F)(F)F)c3)CSC[C@@H](C(N)=O)NC(=O)[C@]3(C)CCCN3C2=O)cc1 [Compound 073] ([Mpa]K[dA][Trp(5-F)][Trp(5-F)]PTY(Me)[αMeP]C-NH2; linker 1-10 via X40) | 21 to 50 |
| COc1ccc(C[C@@H]2NC(=O)[C@H]([C@H](C)O)NC(=O)[C@@H]3C[C@H](F)CN3C(=O)[C@H](Cc3c[nH]c4ccc(F)cc34)NC(=O)[C@H](Cc3c[nH]c4ccc(F)cc34)NC(=O)[C@@H](C)NC(=O)CCCCC(=O)NCCOc3ccc(cc3)C[C@@H](C(N)=O)NC(=O)[C@]3(C)CCCN3C2=O)cc1 [Compound 099] ([dA][Trp(5-F)][Trp(5-F)][Pro(cis-4-F)][aThr]Y(Me)[αMeP][AEF]-NH2; linker N-8 via Adipoyl) | 21 to 50 |
| COc1ccc(C[C@@H]2NC(=O)[C@H]([C@@H](C)O)NC(=O)[C@@H]3C[C@H](F)CN3C(=O)[C@H](Cc3c[nH]c4ccc(F)cc34)NC(=O)[C@H](Cc3c[nH]c4ccc(F)cc34)NC(=O)[C@@H](C)NC(=O)CCCCCC(=O)NCc3ccc(cc3)C[C@@H](C(N)=O)NC(=O)[C@]3(C)CCCN3C2=O)cc1 [Compound 125] ([dA][Trp(5-F)][Trp(5-F)][Pro(cis-4-F)]TY(Me)[αMeP][Phe(4-CH2NH2)]-NH2; linker N-8 via Heptanedioyl) | 21 to 50 |
| C#CCCC[C@@H]1NC(=O)[C@H](Cc2c[nH]c3ccc(F)cc23)NC(=O)[C@H](CCCN=[N+]=[N-])NC(=O)[C@@H](C)NC(=O)[C@H](C)NC(=O)CCSCc2cccc(c2)CSCCNC(=O)[C@]2(C)CCCN2C(=O)[C@H](Cc2ccc(OC)cc2)NC(=O)[C@H]([C@@H](C)O)NC1=O [Compound 078] (cyclo(A[dA][Orn(N3)][Trp(5-F)][X53]TY(Me)[αMeP][X4])) | 0.1 to 1 |
| COc1ccc(C[C@@H]2NC(=O)[C@H](Cc3ncc[nH]3)NC(=O)[C@H](CC(=O)O)NC(=O)[C@H](Cc3c[nH]c4ccc(F)cc34)NC(=O)[C@H](Cc3c[nH]c4ccc(F)cc34)NC(=O)[C@@H](C)NC(=O)[C@H](CNC(=O)COCCOCCN)NC(=O)CCSCc3cccc(c3)CSCCNC(=O)[C@]3(C)CCCN3C2=O)cc1 [Compound 448] (cyclo(D[Ala(imidazol-2-yl)]Y(Me)[αMeP][X4][Dap](AEEA)[dA][Trp(5-F)][Trp(5-F)])) | 0.00011 to 0.1 |
| COc1ccc(C[C@@H]2NC(=O)[C@H](Cc3cnc[nH]3)NC(=O)[C@H](CC(=O)O)NC(=O)[C@H](Cc3c[nH]c4ccc(F)cc34)NC(=O)[C@H](Cc3c[nH]c4ccc(F)cc34)NC(=O)[C@@H](C)NC(=O)[C@H](CCCCN)NC(=O)[C@@H](NC(C)=O)CC(=O)NCc3ccc(cc3)C[C@@H](C(N)=O)NC(=O)[C@]3(C)CCCN3C2=O)cc1 [Compound 348] (Ac-DK[dA][Trp(5-F)][Trp(5-F)]DHY(Me)[αMeP][Phe(4-CH2NH2)]-NH2; lactam 1-10) | 21 to 50 |
| COc1ccc(C[C@@H]2NC(=O)[C@H](Cc3ncc[nH]3)NC(=O)[C@H](CC(=O)O)NC(=O)[C@H](Cc3c[nH]c4ccc(F)cc34)NC(=O)[C@H](Cc3c[nH]c4ccc(F)cc34)NC(=O)[C@@H](C)NC(=O)[C@H](C)NC(=O)CCSCc3cccc(c3)CSCCNC(=O)[C@]3(C)CCCN3C2=O)cc1 [Compound 407] (cyclo(A[dA][Trp(5-F)][Trp(5-F)]D[Ala(imidazol-2-yl)]Y(Me)[αMeP][X4])) | 21 to 50 |
| COc1ccc(C[C@@H]2NC(=O)[C@@H]([C@H](C)O)NC(=O)[C@@H]3C[C@H](O)CN3C(=O)[C@H](Cc3c[nH]c4ccc(F)cc34)NC(=O)[C@H](Cc3c[nH]c4ccc(F)cc34)NC(=O)[C@@H](C)NC(=O)[C@H](CCCCN)NC(=O)CCSCc3cccc(c3)CSCCNC(=O)[C@]3(C)CCCN3C2=O)cc1 [Compound 085] (cyclo(K[dA][Trp(5-F)][Trp(5-F)][cisHyp][dT]Y(Me)[αMeP][X4])) | 21 to 50 |
| COc1ccc(C[C@@H]2NC(=O)[C@H](Cc3cnc[nH]3)NC(=O)[C@H](CC(=O)O)NC(=O)[C@H](Cc3c[nH]c4cc(F)ccc34)NC(=O)[C@H](Cc3c[nH]c4ccc(F)cc34)NC(=O)[C@@H](C)NC(=O)[C@H](CCCCN)NC(=O)CCc3cn(nn3)-c3ccc(cc3)C[C@@H](C(N)=O)NC(=O)[C@]3(C)CCCN3C2=O)cc1 [Compound 368] | 21 to 50 |
| CC(=O)N[C@H]1CCc2cn(nn2)-c2ccc(cc2)C[C@@H](C(N)=O)NC(=O)[C@]2(C)CCCN2C(=O)[C@H](Cc2ccc(O)cc2)NC(=O)[C@H](Cc2cnc[nH]2)NC(=O)[C@H](CC(=O)O)NC(=O)[C@H](Cc2c[nH]c3ccc(F)cc23)NC(=O)[C@H](Cc2c[nH]c3ccc(F)cc23)NC(=O)CNC(=O)[C@H](C)NC1=O [Compound 331] | 21 to 50 |
| COc1ccc(C[C@@H]2NC(=O)[C@H](Cc3cnc[nH]3)NC(=O)[C@H](CC(=O)O)NC(=O)[C@H](Cc3c[nH]c4ccc(F)cc34)NC(=O)[C@H](Cc3c[nH]c4ccc(F)cc34)NC(=O)[C@@H](C)NC(=O)CCC(=O)NCCOc3ccc(cc3)C[C@@H](C(N)=O)NC(=O)[C@]3(C)CCCN3C2=O)cc1 [Compound 436] ([dA][Trp(5-F)][Trp(5-F)]DHY(Me)[αMeP][AEF]-NH2; linker N-8 via Suc) | 21 to 50 |
| COc1ccc(C[C@@H]2NC(=O)[C@@H]([C@H](C)O)NC(=O)[C@@H]3C[C@H](O)CN3C(=O)[C@H](Cc3c[nH]c4ccc(F)cc34)NC(=O)[C@H](Cc3c[nH]c4ccc(F)cc34)NC(=O)[C@@H](C)NC(=O)[C@H](CCCCN)NC(=O)CCSCc3cc(F)cc(c3)CSCCNC(=O)[C@]3(C)CCCN3C2=O)cc1 [Compound 086] (cyclo(K[dA][Trp(5-F)][Trp(5-F)][cisHyp][dT]Y(Me)[αMeP][X3])) | 21 to 50 |
| COc1ccc(C[C@@H]2NC(=O)[C@H](Cc3cnc[nH]3)NC(=O)[C@H](CC(=O)O)NC(=O)[C@H](Cc3c[nH]c4ccc(F)cc34)NC(=O)[C@H](Cc3c[nH]c4ccc(F)cc34)NC(=O)[C@@H](C)NC(=O)[C@H](CCCCN)NC(=O)[C@@H](NC(C)=O)CC(=O)NCc3ccc(cc3)CCNC(=O)[C@]3(C)CCCN3C2=O)cc1 [Compound 411] (Ac-DK[dA][Trp(5-F)][Trp(5-F)]DHY(Me)[αMeP]; linker 1-C via NHCH2C6H4(p)CH2CH2NH) | 1 to 12.1 |
| COc1ccc(C[C@@H]2NC(=O)[C@H](Cc3cnc[nH]3)NC(=O)[C@H](CC(=O)O)NC(=O)[C@H](Cc3c[nH]c4ccc(F)cc34)NC(=O)[C@H](Cc3c[nH]c4ccc(F)cc34)NC(=O)[C@@H](C)NC(=O)[C@H](CCCCN)NC(=O)[C@@H](NC(C)=O)CCC(=O)NCc3ccc(cc3)CCNC(=O)[C@]3(C)CCCN3C2=O)cc1 [Compound 421] (Ac-EK[dA][Trp(5-F)][Trp(5-F)]DHY(Me)[αMeP]; linker 1-C via NHCH2C6H4(p)CH2CH2NH) | 0.1 to 1 |
| CO[C@@H](C)[C@@H]1NC(=O)[C@@H]2CCCN2C(=O)[C@H](Cc2c[nH]c3ccc(F)cc23)NC(=O)[C@H](Cc2c[nH]c3ccc(F)cc23)NC(=O)[C@@H](C)NC(=O)[C@H](CCCCN)NC(=O)CCSCc2cccc(c2)CSCCNC(=O)[C@]2(C)CCCN2C(=O)[C@H](Cc2ccc(O)cc2)NC1=O [Compound 071] (cyclo(K[dA][Trp(5-F)][Trp(5-F)]P[aThr](Me)Y[αMeP][X4])) | 21 to 50 |
| CC(=O)N[C@@H]1CCCC/C=C/CO[C@H]2C[C@@H](C(N)=O)N(C2)C(=O)[C@H](Cc2ccc(O)cc2)NC(=O)[C@H](Cc2cnc[nH]2)NC(=O)[C@H](CC(=O)O)NC(=O)[C@H](Cc2c[nH]c3ccc(F)cc23)NC(=O)[C@H](Cc2c[nH]c3ccc(F)cc23)NC(=O)CCNC1=O [Compound 418] | 21 to 50 |
| COc1ccc(C[C@@H]2NC(=O)[C@H]([C@@H](C)O)NC(=O)[C@@H]3C[C@H](F)CN3C(=O)[C@H](Cc3c[nH]c4ccc(F)cc34)NC(=O)[C@H](Cc3c[nH]c4ccc(F)cc34)NC(=O)[C@@H](C)NC(=O)CCCCNC(=O)c3ccc(cc3)C[C@@H](C(N)=O)NC(=O)[C@]3(C)CCCN3C2=O)cc1 [Compound 076] ([Ava][dA][Trp(5-F)][Trp(5-F)][Pro(cis-4-F)]TY(Me)[αMeP][Phe(4-COOH)]-NH2; lactam N-9) | 0.1 to 1 |
